The source of these data is patent publication US9770452B2, “Quinoxaline derivatives as GPR6 modulators” (Takeda Pharmaceutical Company Limited, priority 2012, dated 2017).

The target in the assay is T1, GPR6 receptor (Homo sapiens, UniProt P46095).
T1 construct: expressed in transfected cells
Nature of the assay: Inhibition of cAMP Activity of GPR6 In Vitro Assay (CHO-K1 cells, HTRF cAMP). It counts as cell-based. As to conditions: compounds of Compound Table 1; inhibition of constitutive cAMP activity of GPR6 expressed in CHO-K1 cells; approximate IC50; read-out: IC50. Summed up:
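CHO-K1 cells with doxycycline-induced (1 μg/ml, 20 h) GPR6 treated with compounds 45 min at 37 °C in Ringer's buffer (pH 7.4) with 0.5% fatty acid free BSA. Constitutive cAMP measured by Lance HTRF Ultra cAMP; IC50 from four-parameter logistic fit.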

By IC50 is commonly meant the concentration at which inhibition is half-maximal.

Structures can show the parent of a compound that is named as a salt.

T1 sequence (P46095 whole entry): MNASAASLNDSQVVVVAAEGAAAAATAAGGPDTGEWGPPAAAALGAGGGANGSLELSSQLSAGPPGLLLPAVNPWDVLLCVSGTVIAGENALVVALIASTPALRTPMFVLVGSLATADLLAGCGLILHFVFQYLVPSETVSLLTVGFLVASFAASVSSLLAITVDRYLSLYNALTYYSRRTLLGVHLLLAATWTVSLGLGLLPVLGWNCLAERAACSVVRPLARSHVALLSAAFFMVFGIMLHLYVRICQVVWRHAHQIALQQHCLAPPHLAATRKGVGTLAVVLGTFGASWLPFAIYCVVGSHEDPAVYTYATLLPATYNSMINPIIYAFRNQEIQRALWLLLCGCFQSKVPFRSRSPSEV

As for “azetidin-1-yl(2-(cyclopropylamino)-3-(4-(2-fluoro-4-methoxyphenoxy)piperidin-1-yl)pyrido[3,4-b]pyrazin-5-yl)methanone, 2,2,2-trifluoroacetic acid salt [Cpd 610]”, the half-maximal inhibitory concentration (IC50) is 1570 nM.

Consider `COc1ccc(Nc2nc3ccccc3nc2N2CCN(Cc3cccc(Cl)c3)CC2)cc1` [Cpd 31, 3-(4-(3-chlorobenzyl)piperazin-1-yl)-N-(4-methoxyphenyl)quinoxalin-2-amine, 2,2,2-trifluoroacetic acid salt], for which the IC50 was found to be 6140 nM.

In the case of “6-bromo-N-cyclopropyl-3-(4-((2,5-difluorophenyl)fluoromethyl)piperidin-1-yl)quinoxalin-2-amine, 2,2,2-trifluoroacetic acid salt [Cpd 500]”, the IC50 worked out at 160 nM.

For “(4-chlorophenyl)(4-(3-(pyridin-3-ylamino)quinoxalin-2-yl)piperazin-1-yl)methanone, 2,2,2-trifluoroacetic acid salt [Cpd 223]”, the IC50 came out at 5620 nM.

On to “3-(4-(2,5-dichlorobenzyl)piperazin-1-yl)-N-(1,2,4-triazin-3-yl)quinoxalin-2-amine, 2,2,2-trifluoroacetic acid salt [Cpd 177]”, for which the IC50 came out at 17800 nM.

For `O=C(c1cc2nc(NC3CC3)c(N3CCC([C@H](F)c4ccc(F)cc4F)CC3)nc2cn1)N1CCC1` [Cpd 591, (S)-azetidin-1-yl(2-(cyclopropylamino)-3-(4-((2,4-difluorophenyl)fluoromethyl)piperidin-1-yl)pyrido[3,4-b]pyrazin-7-yl)methanone], the IC50 amounted to 22 nM.

Consider “N-cyclobutyl-2-(4-(2,4-difluorophenoxy)piperidin-1-yl)pyrido[3,4-b]pyrazin-3-amine [Cpd 657]”, for which the IC50 was 8 nM.

For the compound `COc1ccc(OC2CCN(c3nc4c(C(=O)N(C)C)nccc4nc3NC3CC3)CC2)c(F)c1` [Cpd 604, 2-(cyclopropylamino)-3-(4-(2-fluoro-4-methoxyphenoxy)piperidin-1-yl)-N,N-dimethylpyrido[3,4-b]pyrazine-5-carboxamide], the IC50 turned out to be 54 nM.

For `Clc1ccc(Cl)c(CN2CCN(c3nc4ccc(Br)cc4nc3NC3CC3)CC2)c1` [Cpd 45, 7-bromo-N-cyclopropyl-3-(4-(2,5-dichlorobenzyl)piperazin-1-yl)quinoxalin-2-amine, 2,2,2-trifluoroacetic acid salt], the IC50 was found to be 2340 nM.

Consider “N-cyclopropyl-3-(4-(2-methoxyphenoxy)piperidin-1-yl)pyrido[3,4-b]pyrazin-2-amine, 2,2,2-trifluoroacetic acid salt [Cpd 559]”, for which the half-inhibitory concentration (IC50) was 67 nM.

In the case of “N-cyclopropyl-3-(4-((4-(trifluoromethyl)phenyl)sulfonyl)piperazin-1-yl)pyrido[3,4-b]pyrazin-2-amine, 2,2,2-trifluoroacetic acid salt [Cpd 302]”, the concentration for half-maximal inhibition (IC50) is 340 nM.

As to `Clc1cccc(CN2CCN(c3nc4ccccc4nc3Nc3ccc(Br)cc3)CC2)c1` [Cpd 21, N-(4-bromophenyl)-3-(4-(3-chlorobenzyl)piperazin-1-yl)quinoxalin-2-amine, 2,2,2-trifluoroacetic acid salt], the IC50 turned out to be 3030 nM.

With “N-cyclopropyl-3-(4-(4-ethoxyphenoxy)piperidin-1-yl)pyrido[3,4-b]pyrazin-2-amine, 2,2,2-trifluoroacetic acid salt [Cpd 601]”, the IC50 stood at 22 nM.

Turning to “2-(cyclopropylamino)-3-(4-(2,4-difluorobenzyl)piperidin-1-yl)quinoxaline-6-carbonitrile, 2,2,2-trifluoroacetic acid salt [Cpd 416]”, the IC50 was found to be 1510 nM.

As to “N-cyclopropyl-3-(4-(2,4-difluorophenoxy)piperidin-1-yl)-5-methylpyrido[3,4-b]pyrazin-2-amine, 2,2,2-trifluoroacetic acid salt [Cpd 494]”, the IC50 was 2 nM.

In the case of “(S)-2-(cyclopropylamino)-3-(4-((2,4-difluorophenyl)fluoromethyl)piperidin-1-yl)pyrido[3,4-b]pyrazine-7-carbonitrile [Cpd 547]”, the IC50 was 16 nM.

Consider “N-cyclopropyl-2-(4-(2,5-difluorobenzyl)piperazin-1-yl)pyrido[3,4-b]pyrazin-3-amine, 2,2,2-trifluoroacetic acid salt [Cpd 292]”, for which the IC50 turned out to be 56 nM.

Regarding “8-chloro-N-cyclopropyl-3-(4-((2,5-difluorophenyl)fluoromethyl)piperidin-1-yl)pyrido[3,4-b]pyrazin-2-amine, 2,2,2-trifluoroacetic acid salt [Cpd 486]”, the IC50 was 98 nM.

In the case of `N#Cc1ccc(Nc2nc3ccccc3nc2N2CCN(Cc3cc(Cl)ccc3Cl)CC2)cc1` [Cpd 58, 4-((3-(4-(2,5-dichlorobenzyl)piperazin-1-yl)quinoxalin-2-yl)amino)benzonitrile], the IC50 came out at 5530 nM.

As for “N-cyclopropyl-3-(4-(2,4-difluorophenoxy)piperidin-1-yl)pyrazino[2,3-d]pyridazin-2-amine, 2,2,2-trifluoroacetic acid salt [Cpd 619]”, the IC50 is 14 nM.

Regarding “N-cyclopropyl-3-(4-(2,5-difluorophenoxy)piperidin-1-yl)pyrido[3,4-b]pyrazin-2-amine, 2,2,2-trifluoroacetic acid salt [Cpd 431]”, the IC50 turned out to be 170 nM.

With “2-(cyclopropylamino)-3-(4-((2,5-dichlorophenyl)sulfonyl)piperazin-1-yl)quinoxaline-6-carbonitrile [Cpd 226]”, the IC50 came to 570 nM.

In the case of “(R)-2-(cyclopropylamino)-3-(4-((2,4-difluorophenyl)fluoromethyl)piperidin-1-yl)-N,N-dimethylpyrido[3,4-b]pyrazine-7-carboxamide, 2,2,2-trifluoroacetic acid salt [Cpd 578]”, the IC50 is 7210 nM.

With `Cc1cc(C)c2nc(N3CCN(Cc4cc(Cl)ccc4Cl)CC3)c(NC3CC3)nc2c1` [Cpd 103, N-cyclopropyl-3-(4-(2,5-dichlorobenzyl)piperazin-1-yl)-5,7-dimethylquinoxalin-2-amine], the 50% inhibitory concentration (IC50) came out at 5310 nM.

“3-(4-(5-chloro-2-fluorobenzoyl)piperidin-1-yl)-2-(cyclopropylamino)quinoxaline-6-carbonitrile, 2,2,2-trifluoroacetic acid salt [Cpd 469]”: the IC50 turned out to be 90 nM.

Regarding “3-(4-(2,5-dichlorobenzyl)piperazin-1-yl)-N-(2-ethoxyethyl)quinoxalin-2-amine, 2,2,2-trifluoroacetic acid salt [Cpd 167]”, the 50% inhibitory concentration (IC50) came to 3330 nM.

`CC(C)Nc1nc2ccccc2nc1N1CCN(Cc2cc(Cl)ccc2Cl)CC1` [Cpd 111, 3-(4-(2,5-dichlorobenzyl)piperazin-1-yl)-N-isopropylquinoxalin-2-amine, 2,2,2-trifluoroacetic acid salt]: the half-maximal inhibitory concentration (IC50) was 3310 nM.

“(2-chlorophenyl)(1-(2-(cyclopropylamino)pyrido[3,4-b]pyrazin-3-yl)piperidin-4-yl)methanone, 2,2,2-trifluoroacetic acid salt [Cpd 557]”: the IC50 amounted to 1920 nM.

Regarding “2-((2,2-difluoroethyl)amino)-3-(4-(2,4-difluorophenoxy)piperidin-1-yl)quinoxaline-6-carbonitrile [Cpd 513]”, the IC50 was 71 nM.

Turning to “(2-chloro-5-fluorophenyl)(1-(2-(cyclopropylamino)pyrido[3,4-b]pyrazin-3-yl)piperidin-4-yl)methanone, 2,2,2-trifluoroacetic acid salt [Cpd 567]”, the concentration for half-maximal inhibition (IC50) was 5780 nM.

Take “3-(4-(2,4-difluorobenzyl)piperidin-1-yl)-2-((2-methoxyethyl)amino)quinoxaline-6-carbonitrile [Cpd 518]”: the IC50 was 24 nM.

In the case of “3-(4-(2,4-difluorophenoxy)piperidin-1-yl)-N-isopropylpyrido[3,4-b]pyrazin-2-amine, 2,2,2-trifluoroacetic acid salt [Cpd 620]”, the IC50 is 18 nM.

For “3-(4-((3-chloro-5-fluoro-2-methylphenyl)sulfonyl)piperazin-1-yl)-2-(cyclopropylamino)quinoxaline-6-carbonitrile, 2,2,2-trifluoroacetic acid salt [Cpd 282]”, the IC50 was 4290 nM.

Take “3-(4-(2,4-difluorophenoxy)piperidin-1-yl)-N-(2-methoxyethyl)pyrido[3,4-b]pyrazin-2-amine, 2,2,2-trifluoroacetic acid salt [Cpd 525]”: the IC50 came to 29 nM.

In the case of “3-(4-(3-chloro-4-fluorobenzyl)piperazin-1-yl)-N-cyclopropylpyrido[3,4-b]pyrazin-2-amine, 2,2,2-trifluoroacetic acid salt [Cpd 315]”, the IC50 is 50 nM.

Take “(1-(2-(cyclopropylamino)pyrido[3,4-b]pyrazin-3-yl)piperidin-4-yl)(2-(methylthio)phenyl)methanone, 2,2,2-trifluoroacetic acid salt [Cpd 581]”: the IC50 was 6 nM.

For the compound “2-(cyclopropylamino)-3-(4-(phenylsulfonyl)piperazin-1-yl)quinoxaline-6-carbonitrile [Cpd 162]”, the half-inhibitory concentration (IC50) was found to be 4630 nM.

On to “N-cyclopropyl-3-(4-(4-(methylthio)phenoxy)piperidin-1-yl)pyrido[3,4-b]pyrazin-2-amine, 2,2,2-trifluoroacetic acid salt [Cpd 600]”, for which the half-maximal inhibitory concentration (IC50) is 20 nM.

Consider “2-(cyclopropylamino)-3-(4-((4-(trifluoromethoxy)phenyl)sulfonyl)piperazin-1-yl)quinoxaline-6-carbonitrile, 2,2,2-trifluoroacetic acid salt [Cpd 283]”, for which the IC50 is 420 nM.

“3-(4-((4-chloro-2-oxopyridin-1(2H)-yl)methyl)piperidin-1-yl)-2-(cyclopropylamino)quinoxaline-6-carbonitrile [Cpd 526]”: the IC50 was determined as 670 nM.
